# Data from US4990537A, “Anti influenza agent” (priority 1988, dated 1991).
# What was measured:
# [1] = test system: human influenza virus A/WSN; test: Inhibitory activities against plaque formation of human influenza virus (plaque assay in MDCK cells); type: cell-based; settings: for inhibitory activities against growth of human influenza virus compared with amantadine: in words, versus amantadine
# [2] = test system: MDCK cells (dog kidney cells); settings: for Cytotoxicity (printed in the inhibition rate column): 100.0 μg/ml, plaque assay, three days; for range of safety compared with amantadine: in words, versus amantadine
# [3] = test system: human influenza virus (A/Fukuoka/80); test: animal or person; type: in vivo, human influenza virus; embryonated chicken eggs; settings: for IC50: unidentified influenza virus, 48 h, read-out: Concentration for 50% inhibition against proliferation of virus; for activities for inhibiting proliferation of human influenza virus compared with amantadine: in words, versus amantadine
# in vitro = settings: dog, mdck
# [4] = unidentified influenza virus, WSN, MDCK, 72 h, read-out: Inhibition rate (%) of plaque formation
SMILES,"inhibition at 30 µg/mL [1, 4]",cytotoxicity [2],Cytotoxicity (printed in the inhibition rate column) [2],IC50 [3],inhibitory activities against growth of human influenza virus compared with amantadine [1],"inhibition at 1 µg/mL [1, 4]","inhibition at 2.5 µg/mL [1, 4]","inhibition at 5 µg/mL [1, 4]","inhibition at 10 µg/mL [1, 4]","inhibition at 25 µg/mL [1, 4]","inhibition at 50 µg/mL [1, 4]",range of safety compared with amantadine [2],MNTC at 72 h (in vitro),activities for inhibiting proliferation of human influenza virus compared with amantadine [3],"inhibition at 20 µg/mL [1, 4]","inhibition at 40 µg/mL [1, 4]","inhibition at 100 µg/mL [1, 4]"
"NC12CC3CC(CC(C3)C1)C2 [Amantadine, amantadine, reference compound]",60.1%,cytotoxicity slightly but distinctly,Cytotoxicity,> 100 µg/mL,,,,,,,,,,,,,
"CS(=O)(=O)O.CS(=O)(=O)O.N=C(N)Nc1ccc(C(=O)Oc2ccc3cc(C(=N)N)ccc3c2)cc1 [Compound A, 6-Amidino-2-naphthyl p-guanidinobenzoate dimethanesulfonate]",,,Cytotoxicity,0.125 µg/mL,even stronger inhibitory activities against growth of human influenza virus than amantadine,19.9%,27.2%,52.1%,100%,100%,100%,wide range of safety as compared with amantadine,≥ 50 µg/mL,stronger activities for inhibiting proliferation of human influenza virus,,,
"CN(C)C(=O)COC(=O)Cc1ccc(OC(=O)c2ccc(NC(=N)N)cc2)cc1.CS(=O)(=O)O [Compound B, N,N-dimethylcarbamoylmethyl p-(p-guanidinobenzoyloxy)phenylacetate methanesulfonate]",,,,1.25 µg/mL,even stronger inhibitory activities against growth of human influenza virus than amantadine,,,,29.5%,,88%,wide range of safety as compared with amantadine,≥ 1000 µg/mL,stronger activities for inhibiting proliferation of human influenza virus,51.5%,80.5%,100%
